Laboratory results reported in US9662314B2, “Compounds and methods for the treatment of muscular disease, and related screening methods” (Tufts Medical Center, Inc., priority 2011, dated 2017).

Assays:
[1] = system: vascular endothelial growth factor (VEGF); conditions: Jeong et al. 2011; cited from earlier work
[2] = system: glucose transporter 1 (GLUT-1); conditions: Jeong et al. 2011; cited from earlier work
[3] = literature statement; cited from earlier work
[4] = system: Smooth mutant Drosophila flies (sm homozygotes, that develop muscle dystrophy); assay: Survival of adult smooth mutant Drosophila flies treated with ascochlorin (FIG. 1); format: in vivo; conditions: adult sm homozygote flies on paper discs, 1 mM solution in 9% sucrose, 10% ethanol, throughout lifespan, vs vehicle alone
Method: Smooth mutant Drosophila flies (sm homozygotes, that develop muscle dystrophy) were maintained on paper discs soaked either with ascochlorin (Santa Cruz Biotechnology, 1 mM solution in 9% sucrose, 10% ethanol), or with vehicle alone. The treatment was maintained throughout the lifespan of the organism. Unaffected control siblings (sm heterozygotes) were maintained on vehicle. The number of dead flies was recorded daily, and percent survival was plotted as a function of time in days.

splicing factor hnRNP L = conditions: U2OS cells, most up-regulated protein (Kang et al. 2006); cited from earlier work
[5] = system: human osteosarcoma cells (U2OS); conditions: proteome analysis (Kang et al. 2006); cited from earlier work
BIN1 = conditions: U2OS cells, third most up-regulated protein (Kang et al. 2006); cited from earlier work
mammary carcinoma = conditions: intraperitoneal administration, murine mammary carcinoma (Nakajima et al., 2007); cited from earlier work

SMILES	expression of VEGF [1]	expression of GLUT-1 [2]	toxicity [3]	survival time [4]	hnRNP L up-regulation (splicing factor hnRNP L) [×]	increase in the levels of three proteins [5] [fold]	BIN1 up-regulation (BIN1) [×]	cancer growth (mammary carcinoma)	survival (mammary carcinoma)
COc1c(Cl)c(C)c(C=O)c(O)c1C/C=C(C)/C=C/[C@@]1(C)[C@H](C)CCC(=O)[C@@H]1C [MAC, 4-O-methylascochlorin]	increases the expression	increases the expression	–	–	–	–	–	–	–
C/C(=C\Cc1c(O)c(Cl)c(C)c(C=O)c1O)CC/C=C(\C)[C@@H]1CC(=O)C(C)(C)O1 [ascofuranone]	–	–	non-toxic	–	–	–	–	–	–
CC(/C=C/[C@@]1(C)[C@H](C)CCC(=O)[C@@H]1C)=C\Cc1c(O)c(Cl)c(C)c(C=O)c1O [ascochlorin]	–	–	non-toxic	prolonged survival time	12	≥ 10	10	significantly suppressed cancer growth	prolonged survival
